One assay has as its system cultured nerve cells (cerebral cortex). In words: cells. The format is cell-based, Wistar rat. The note with it: Rattus norvegicus, Cerebral cortex neuron, 24 h, read-out: ED50.
With `CC(=O)Oc1ccc2c3c1O[C@H]1[C@H](N(C)C(=O)/C=C/c4ccccc4)CC[C@@]4(O)[C@@H](C2)N(CC2CC2)CC[C@]314` [Compound 114, 17-cyclopropylmethyl-3-acetoxy-14β-hydroxy-4,5α-epoxy-6β-(N-methylcinnamamido)morphinan], the EC50 was 60300 nM.

On to `CN(C(=O)/C=C/c1cccc(OC(F)(F)F)c1)[C@@H]1CC[C@@]2(O)[C@H]3Cc4ccc(O)c5c4[C@@]2(CCN3CC2CC2)[C@H]1O5` [Compound 120, 17-cyclopropylmethyl-3,14β-dihydroxy-4,5α-epoxy-6β-(N-methyl-3-trifluoromethoxycinnamamido)morphinan], for which the EC50 amounted to 1060 nM.

Staying with this assay, now noted: Rattus norvegicus, Cerebral cortex neuron; 10 mM glutamate, 24 hours at 37° C., LDH leakage; read-out: ED50 (the source's name).
Take `CN(C(=O)/C=C/c1cccc(C(F)(F)F)c1)[C@@H]1CC[C@@]2(O)[C@H]3Cc4ccc(O)c5c4[C@@]2(CCN3CC2CC2)[C@H]1O5` [Compound 42, 17-cyclopropylmethyl-3,14β-dihydroxy-4,5α-epoxy-6β-(N-methyl-3-trifluoromethylcinnamamido)morphinan]: the EC50 came to 1800 nM.

Take `Cc1cccc(/C=C/C(=O)N(C)[C@@H]2CC[C@@]3(O)[C@H]4Cc5ccc(O)c6c5[C@@]3(CCN4CC3CC3)[C@H]2O6)c1` [Compound 46, 17-cyclopropylmethyl-3,14β-dihydroxy-4,5α-epoxy-6β-(N-methyl-3-methylcinnamamido) morphinan]: the EC50 was found to be 4420 nM.

For `CC(C)CN(CCCCCCc1ccccc1)[C@@H]1CC[C@@]2(O)[C@H]3Cc4ccc(O)c5c4[C@@]2(CCN3CC2CC2)[C@H]1O5` [Compound 98, 17-cyclopropylmethyl-3,14β-dihydroxy-4,5α-epoxy-6β-(N-isobutyl-6-phenylhexylamino)morphinan], the EC50 is 160 nM.

Regarding `CN(C(=O)OCc1ccccc1)[C@H]1CC[C@@]2(O)[C@H]3Cc4ccc(O)c5c4[C@@]2(CCN3CC2CC2)[C@H]1O5` [Compound 99, 17-cyclopropylmethyl-3,14β-dihydroxy-4,5α-epoxy-6α-(N-methylbenzyloxycarbamido)morphinan], the EC50 is 400 nM.

For `COCCOC(=O)N(C)[C@H]1CC[C@@]2(O)[C@H]3Cc4ccc(O)c5c4[C@@]2(CCN3CC2CC2)[C@H]1O5` [Compound 100, 17-cyclopropylmethyl-3,14β-dihydroxy-4,5α-epoxy-6α-(N-methyl-2-methoxyethoxycarbamido)morphinan], the EC50 turned out to be 38800 nM.

In the case of `CN(C(=O)Nc1ccc(Cl)c(Cl)c1)[C@H]1CC[C@@]2(O)[C@H]3Cc4ccc(O)c5c4[C@@]2(CCN3CC2CC2)[C@H]1O5` [Compound 103, 17-Cyclopropylmethyl-3,14β-dihydroxy-4,5α-epoxy-6α-[N-methyl-N'-(3,4-dichlorophenyl)ureido]morphinan], the EC50 was 540 nM.

Regarding `CN(C(=O)NCc1ccccc1)[C@H]1CC[C@@]2(O)[C@H]3Cc4ccc(O)c5c4[C@@]2(CCN3CC2CC2)[C@H]1O5` [Compound 104, 17-Cyclopropylmethyl-3,14β-dihydroxy-4,5α-epoxy-6α-(N-methyl-N'-benzylureido)morphinan], the EC50 stood at 580 nM.

As to `CN(C(=S)NCc1ccccc1)[C@H]1CC[C@@]2(O)[C@H]3Cc4ccc(O)c5c4[C@@]2(CCN3CC2CC2)[C@H]1O5` [Compound 105, 17-cyclopropylmethyl-3,14β-dihydroxy-4,5α-epoxy-6α-(N-methyl-N'-benzylthioureido)morphinan], the EC50 is 20600 nM.

For `CN(C(=S)NCc1ccccc1)[C@@H]1CC[C@@]2(O)[C@H]3Cc4ccc(O)c5c4[C@@]2(CCN3CC2CC2)[C@H]1O5` [Compound 106, 17-cyclopropylmethyl-3,14β-dihydroxy-4,5α-epoxy-6β-(N-methyl-N'-benzylthioureido)morphinan], the EC50 worked out at 10900 nM.

For the molecule `CN([C@H]1CC[C@@]2(O)[C@H]3Cc4ccc(O)c5c4[C@@]2(CCN3CC2CC2)[C@H]1O5)S(=O)(=O)Cc1ccc(Cl)c(Cl)c1` [Compound 111, 17-cyclopropylmethyl-3,14β-dihydroxy-4,5α-epoxy-6α-(N-methyl-3,4-dichlorophenylmethanesulfonamido) morphinan], the EC50 was found to be 540 nM.

As to `CN([C@H]1CC[C@@]2(O)[C@H]3Cc4ccc(O)c5c4[C@@]2(CCN3CC2CC2)[C@H]1O5)S(=O)(=O)Cc1ccccc1` [Compound 112, 17-cyclopropylmethyl-3,14β-dihydroxy-4,5α-epoxy-6α-(N-methyl-phenylmethanesulfonamido)morphinan], the EC50 was determined as 1450 nM.

`O=C(CCc1ccccc1)O[C@H]1CC[C@@]2(O)[C@H]3Cc4ccc(O)c5c4[C@@]2(CCN3CC2CC2)[C@H]1O5` [Compound 113, 17-cyclopropylmethyl-3,14β-dihydroxy-4,5α-epoxy-6α-(3-phenylpropionyloxy)morphinanan]: the EC50 was determined as 530 nM.

For the molecule `CC(=O)O[C@@]12CC[C@@H](N(C)C(=O)/C=C/c3ccccc3)[C@@H]3Oc4c(O)ccc5c4[C@@]31CCN(CC1CC1)[C@@H]2C5` [Compound 115, 17-cyclopropylmethyl-3-hydroxy-14β-acetoxy-4,5α-epoxy-6β-(N-methylcinnamamido)morphinan], the EC50 turned out to be 5410 nM.

Take `CN(C(=O)/C=C/c1cccc(N=C=S)c1)[C@@H]1CC[C@@]2(O)[C@H]3Cc4ccc(O)c5c4[C@@]2(CCN3CC2CC2)[C@H]1O5` [Compound 117, 17-cyclopropylmethyl-3,14β-dihydroxy-4,5α-epoxy-6β-(N-methyl-3-isothiocyanatocinnamamido)morphinan]: the EC50 turned out to be 9570 nM.

The test system of a further assay is nerve cells in the CAl region of the hippocampus. In words: Protective action from delayed neuronal death (bilateral carotid ligation ischemia, residual hippocampal nerve cells). It counts as in vivo, mongolian jerbils. As to conditions: 3 mg/kg s.c., 30 minutes before ischemia; 1 week after 5 min ligation. On the procedure:
Those compounds that provide protection from and suppress delayed neuronal death described in Example 18 are considered to be promising as preventive and therapeutic agents for ischemic brain disorders, brain nerve cell disorders and dementia, which are problems that the present invention is attempting to solve. The pharmacological activity of the compounds of the present invention was evaluated in the manner below using jerbils for the animal model.
A midline incision was made in mongolian having body weights of 50-70 g under ether anesthesia. Blood flow through the carotid arteries on both sides was interrupted to create an ischemic state by ligating the vessels for 5 minutes. The test compound was administered subcutaneously either 30 minutes or 1 hour prior to ligation ischemia, and the rectal temperature of the animals was controlled to 37±2° C. using a heating pad or heater starting 5 minutes before to 30 minutes after ligation ischemia. 1 week after ligation, 4% neutral buffered formalin was perfused from the heart throughout the body followed by extraction of the brain. After post-fixing the extracted brain in the same solution, the tissue was prepared into sections after embedding in paraffin. The sections were stained with hematoxylin and eosin, and the number of nerve cells in the CAl region of the hippocampus over a width of 1 mm to the left and right was counted. The total number of nerve cells on the right and left sides was then used for evaluation.
For the molecule `CC(C)CN(C(=O)Cc1ccc(Cl)c(Cl)c1)[C@H]1CC[C@@]2(O)[C@H]3Cc4ccc(O)c5c4[C@@]2(CCN3CC2CC2)[C@H]1O5` [Compound 35, 17-cyclopropylmethyl-3,14β-dihydroxy-4,5α-epoxy-6α-(N-isobutyl-3,4-dichlorophenylacetoamido)morphinan], the “No. of Residual Nerve Cells” value was 203.1 ± 40.1.

The assay is the same for the next values; noted with them: conclusion from Table 2.
With `CN(C(=O)CCCCCc1ccccc1)[C@H]1CC[C@@]2(O)[C@H]3Cc4ccc(O)c5c4[C@@]2(CCN3CC2CC2)[C@H]1O5` [Compound 34, 17-cyclopropylmethyl-3,14β-dihydroxy-4,5α-epoxy-6α-(N-methyl-6-phenylhexanoamido)morphinan], the “inhibition of defluxion of brain nerve cells caused by ischemia” value (from here on “inhibition”) is “significantly inhibited defluxion of brain nerve cells caused by ischemia”.

`CC(C)CN(C(=O)Cc1ccc(Cl)c(Cl)c1)[C@H]1CC[C@@]2(O)[C@H]3Cc4ccc(O)c5c4[C@@]2(CCN3CC2CC2)[C@H]1O5` [Compound 35, 17-cyclopropylmethyl-3,14β-dihydroxy-4,5α-epoxy-6α-(N-isobutyl-3,4-dichlorophenylacetoamido)morphinan]: the “inhibition” value is listed as “significantly inhibited defluxion of brain nerve cells caused by ischemia”.

In the case of `CN(C(=O)/C=C/c1cccc(C(F)(F)F)c1)[C@@H]1CC[C@@]2(O)[C@H]3Cc4ccc(O)c5c4[C@@]2(CCN3CC2CC2)[C@H]1O5` [Compound 42, 17-cyclopropylmethyl-3,14β-dihydroxy-4,5α-epoxy-6β-(N-methyl-3-trifluoromethylcinnamamido)morphinan], the “inhibition” value is on record as “significantly inhibited defluxion of brain nerve cells caused by ischemia”.

`Cc1cccc(/C=C/C(=O)N(C)[C@@H]2CC[C@@]3(O)[C@H]4Cc5ccc(O)c6c5[C@@]3(CCN4CC3CC3)[C@H]2O6)c1` [Compound 46, 17-cyclopropylmethyl-3,14β-dihydroxy-4,5α-epoxy-6β-(N-methyl-3-methylcinnamamido) morphinan]: the “inhibition” value is given as “significantly inhibited defluxion of brain nerve cells caused by ischemia”.

On to `CN(C(=O)/C=C/c1cccc([N+](=O)[O-])c1)[C@@H]1CC[C@@]2(O)[C@H]3Cc4ccc(O)c5c4[C@@]2(CCN3CC2CC2)[C@H]1O5` [Compound 78, 17-cyclopropylmethyl-3,14β-dihydroxy-4,5α-epoxy-6β-(N-methyl-3-nitrocinnamamido)morphinan], for which the “inhibition” value is “significantly inhibited defluxion of brain nerve cells caused by ischemia”.

The record behind these values is US5972953A, “Brain cell protective agent” (priority 1993, dated 1999).
